US20230265151A1, “GIP/GLP1 CO-AGONIST COMPOUNDS” (priority 2020, published 2023)
Where two headings read alike, the source gives them in different places. *1 amine or outer side, *2 acyl side, *3 side chain or, on linkers, in order; H or OH if unused. Where a SMILES comes first, the peptide text is derived from it. Side-chain parts run from the residue outwards. [ ]: non-standard residue; d: D form. The star is where a group is joined. αMePhe(2-F) = C[C@](N)(Cc1ccccc1F)C(=O)O; γGlu = O=C(O)[C@H](CCC(=O)[*:2])N[*:1]; C14 diacid = O=C(O)CCCCCCCCCCCCC(=O)*; εLys = N[C@@H](CCCCN[*:1])C(=O)[*:2]; αMeY = C[C@](N)(Cc1ccc(O)cc1)C(=O)O; 4Pal = N[C@@H](Cc1ccncc1)C(=O)O; αMeL = CC(C)C[C@](C)(N)C(=O)O; Orn = NCCC[C@H](N)C(=O)O; AEEA = NCCOCCOCC(=O)O; Aib = CC(C)(N)C(=O)O

Columns and labels:
Type in all cases: cell-based
hGIPR = target: T1, hGIPR (Homo sapiens, UniProt P48546); assay: Functional cAMP formation (HTRF) in HEK-293 clonal cells expressing hGIPR, 0.1% bovine casein, without or with 1.0% human serum albumin; settings: for EC50: geometric mean
T1 construct: expressed in transfected cells
T1 sequence (P48546 22-466): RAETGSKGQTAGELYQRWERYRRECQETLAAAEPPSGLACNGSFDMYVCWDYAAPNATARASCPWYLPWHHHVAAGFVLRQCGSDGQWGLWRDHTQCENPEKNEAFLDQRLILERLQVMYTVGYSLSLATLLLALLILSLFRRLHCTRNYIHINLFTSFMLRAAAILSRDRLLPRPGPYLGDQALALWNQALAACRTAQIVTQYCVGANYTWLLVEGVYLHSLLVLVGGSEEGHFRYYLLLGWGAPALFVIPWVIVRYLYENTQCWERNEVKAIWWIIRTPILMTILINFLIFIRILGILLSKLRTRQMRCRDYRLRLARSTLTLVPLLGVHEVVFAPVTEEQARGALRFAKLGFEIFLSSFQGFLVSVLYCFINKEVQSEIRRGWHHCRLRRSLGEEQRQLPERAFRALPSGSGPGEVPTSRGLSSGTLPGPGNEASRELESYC
Summary of the method: (§1)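 Cells were stimulated with peptide for 30 min at 37° C, then intracellular cAMP was measured by competitive HTRF (665/620 nm ratio) and converted to nM using a cAMP standard curve. Relative EC50 and Emax came from four-parameter logistic fits of percent maximal response against peptide concentration.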

hGCGR = target: T2, hGCGR (Homo sapiens, UniProt P47871); assay: Functional cAMP formation (HTRF) in HEK-293 clonal cells expressing hGCGR, 0.1% bovine casein, without or with 1.0% human serum albumin; settings: geometric mean
T2 construct: expressed in transfected cells
T2 sequence (P47871 26-477): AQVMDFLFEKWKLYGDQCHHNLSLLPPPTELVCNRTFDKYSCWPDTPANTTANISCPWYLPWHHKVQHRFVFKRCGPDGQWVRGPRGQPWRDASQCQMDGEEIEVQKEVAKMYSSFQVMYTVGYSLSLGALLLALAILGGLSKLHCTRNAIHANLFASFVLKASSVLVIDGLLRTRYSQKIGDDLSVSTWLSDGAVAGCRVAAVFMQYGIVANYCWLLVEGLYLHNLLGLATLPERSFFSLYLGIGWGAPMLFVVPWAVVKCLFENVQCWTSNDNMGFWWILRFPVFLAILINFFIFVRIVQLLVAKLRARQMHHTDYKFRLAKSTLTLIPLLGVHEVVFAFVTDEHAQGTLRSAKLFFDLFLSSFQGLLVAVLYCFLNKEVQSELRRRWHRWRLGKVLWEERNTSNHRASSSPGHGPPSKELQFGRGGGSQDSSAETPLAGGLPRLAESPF
Summary of the method: as §1

hGLP-1R = hGLP-1R (Homo sapiens, UniProt P43220); assay: Functional cAMP formation (HTRF) in HEK-293 clonal cells expressing hGLP-1R, 0.1% bovine casein, without or with 1.0% human serum albumin; parameters: expressed in transfected cells; settings: for EC50: geometric mean
Sequence of hGLP-1R (P43220 24-463): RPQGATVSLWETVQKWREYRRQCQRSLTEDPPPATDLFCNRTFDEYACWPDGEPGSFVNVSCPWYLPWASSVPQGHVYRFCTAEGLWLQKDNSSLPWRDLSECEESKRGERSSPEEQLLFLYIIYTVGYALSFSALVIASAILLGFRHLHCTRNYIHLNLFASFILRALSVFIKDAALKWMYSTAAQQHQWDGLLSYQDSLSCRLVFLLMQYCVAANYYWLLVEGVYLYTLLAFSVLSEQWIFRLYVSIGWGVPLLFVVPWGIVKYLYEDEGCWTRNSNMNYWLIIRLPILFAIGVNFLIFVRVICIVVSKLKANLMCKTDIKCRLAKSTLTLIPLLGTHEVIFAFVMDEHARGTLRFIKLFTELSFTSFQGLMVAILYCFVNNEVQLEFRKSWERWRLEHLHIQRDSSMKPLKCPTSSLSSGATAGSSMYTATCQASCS
Summary of the method: as §1

[1] = 0.1% bovine casein and 1.0% human serum albumin, 37° C., read-out: hGIPR EC50, nM (SEM, n)
[2] = HEK293, 0.1% bovine casein and 1.0% human serum albumin, 37° C., percent of maximal response to GIP(1-42)NH2, read-out: hGIPR Emax, % ± SEM
[3] = cAMP, incubated at 37° C., 0.1% bovine casein (no human serum albumin), read-out: hGIPR EC50, nM (SEM, n)
[4] = 0.1% bovine casein and 1.0% human serum albumin, 37° C., read-out: hGCGR EC50, nM (SEM, n)
[5] = cAMP, incubated at 37° C., 0.1% bovine casein (no human serum albumin), read-out: hGCGR EC50, nM (SEM, n)
[6] = 0.1% bovine casein and 1.0% human serum albumin, 37° C., read-out: hGLP-1R EC50, nM (SEM, n)
[7] = HEK293, 0.1% bovine casein and 1.0% human serum albumin, 37° C., percent of maximal response to GLP-1(7-36)NH2, read-out: hGLP-1R Emax, % ± SEM
[8] = cAMP, incubated at 37° C., 0.1% bovine casein (no human serum albumin), read-out: hGLP-1R EC50, nM (SEM, n)
[9] = HEK293, percent of maximal response to GIP(1-42)NH2, 37° C., 0.1% bovine casein, arithmetic mean, read-out: hGIPR Emax, % ± SEM
[10] = HEK293, percent of maximal response to GLP-1(7-36)NH2, 37° C., 0.1% bovine casein, arithmetic mean, read-out: hGLP-1R Emax, % ± SEM

| EC50 (hGIPR; [1]) [nM] | Emax (hGIPR; [2]) [%] | EC50 (hGIPR; [3]) [nM] | EC50 (hGCGR; [4]) [nM] | EC50 (hGCGR; [5]) [nM] | EC50 (hGLP-1R; [6]) [nM] | Emax (hGLP-1R; [7]) [%] | EC50 (hGLP-1R; [8]) [nM] | Emax (hGIPR; [9]) [%] | Emax (hGLP-1R; [10]) [%] | Structure (SMILES) | Emax (hGIPR; HEK293, read-out: hGIPR Emax, % ± SEM, 0.1% bovine casein and 1.0% human serum albumin, 37° C., percent of maximal response to GIP(1-42)NH2) [%] | Emax (hGIPR; HEK293, read-out: hGIPR Emax, % ± SEM, percent of maximal response to GIP(1-42)NH2, 37° C., 0.1% bovine casein, arithmetic mean) [%] | EC50 (hGIPR; hGIPR EC50, nM (SEM, n), 0.1% bovine casein and 1.0% human serum albumin, 37° C.) [nM] | EC50 (hGCGR; hGCGR EC50, nM (SEM, n), 0.1% bovine casein and 1.0% human serum albumin, 37° C.) [nM] | EC50 (hGCGR; hGCGR EC50, nM (SEM, n), cAMP, incubated at 37° C., 0.1% bovine casein (no human serum albumin)) [nM] | Emax (hGLP-1R; HEK293, read-out: hGLP-1R Emax, % ± SEM, 0.1% bovine casein and 1.0% human serum albumin, 37° C., percent of maximal response to GLP-1(7-36)NH2) [%] | EC50 (hGLP-1R; hGLP-1R EC50, nM (SEM, n), 0.1% bovine casein and 1.0% human serum albumin, 37° C.) [nM] |
| --- | --- | --- | --- | --- | --- | --- | --- | --- | --- | --- | --- | --- | --- | --- | --- | --- | --- |
| 0.939 | 79.3 | 0.026 | > 9950 | > 9950 | 18 | 109 | 0.386 | – | – | CC[C@H](C)[C@H](NC(=O)[C@H](CC(C)C)NC(=O)[C@](C)(Cc1ccc(O)cc1)NC(=O)[C@@H](CCC(=O)O)NC(=O)[C@@H](NC(=O)[C@H](Cc1ccccc1)NC(=O)[C@H](CCC(=O)O)NC(=O)C(C)(C)NC(=O)[C@H](CCC(N)=O)NC(=O)[C@H](C)NC(=O)[C@H](CCCCNC(=O)[C@@H](N)CCCCNC(=O)[C@@H](N)CCCCNC(=O)CC[C@H](NC(=O)CCCCCCCCCCCCC(=O)O)C(=O)O)NC(=O)[C@H](CCCN)NC(=O)[C@H](CC(=O)O)NC(=O)[C@H](CC(C)C)NC(=O)[C@](C)(CC(C)C)NC(=O)[C@@H](NC(=O)[C@H](CO)NC(=O)[C@H](Cc1ccncc1)NC(=O)[C@H](CC(=O)O)NC(=O)[C@H](CO)NC(=O)[C@@H](NC(=O)[C@](C)(Cc1ccccc1F)NC(=O)[C@@H](NC(=O)CNC(=O)[C@H](CCC(=O)O)NC(=O)C(C)(C)NC(=O)[C@@H](N)Cc1ccc(O)cc1)[C@@H](C)O)[C@@H](C)O)[C@@H](C)CC)[C@@H](C)CC)C(=O)N[C@@H](CCC(=O)O)C(=O)NCC(=O)NCC(=O)N[C@@H](CCCCNC(=O)[C@@H](N)CCCCNC(=O)[C@@H](N)CCCCNC(=O)CC[C@H](NC(=O)CCCCCCCCCCCCC(=O)O)C(=O)O)C(N)=O [Example 187] (H-Y[Aib]EGT[αMePhe(2-F)]TSD[4Pal]SI[αMeL]LD[Orn]K([εLys-εLys-γGlu-C14 diacid])AQ[Aib]EFI[dE][αMeY]LIEGGK([εLys-εLys-γGlu-C14 diacid])-NH2; N-terminus assumed) | – | – | – | – | – | – | – |
| – | – | 0.0202 | – | > 9950 | – | – | 0.28 | 96.6 ± 4.38 | 100 ± 3.68 | CC[C@H](C)[C@H](NC(=O)[C@H](CC(C)C)NC(=O)[C@](C)(Cc1ccc(O)cc1)NC(=O)[C@H](CCCCNC(=O)COCCOCCNC(=O)COCCOCCNC(=O)CC[C@H](NC(=O)CCCCCCCCCCCCC(=O)O)C(=O)O)NC(=O)[C@@H](NC(=O)[C@H](Cc1ccccc1)NC(=O)[C@H](CCC(=O)O)NC(=O)C(C)(C)NC(=O)[C@H](CCC(N)=O)NC(=O)[C@H](C)NC(=O)[C@H](CCCCNC(=O)COCCOCCNC(=O)COCCOCCNC(=O)CC[C@H](NC(=O)CCCCCCCCCCCCC(=O)O)C(=O)O)NC(=O)[C@H](CCCN)NC(=O)[C@H](CC(=O)O)NC(=O)[C@H](CC(C)C)NC(=O)[C@](C)(CC(C)C)NC(=O)[C@@H](NC(=O)[C@H](CO)NC(=O)[C@H](Cc1ccncc1)NC(=O)[C@H](CC(=O)O)NC(=O)[C@H](CO)NC(=O)[C@@H](NC(=O)[C@](C)(Cc1ccccc1F)NC(=O)[C@@H](NC(=O)CNC(=O)[C@H](CCC(=O)O)NC(=O)C(C)(C)NC(=O)[C@@H](N)Cc1ccc(O)cc1)[C@@H](C)O)[C@@H](C)O)[C@@H](C)CC)[C@@H](C)CC)C(=O)N[C@@H](CCC(=O)O)C(=O)NCC(=O)NCC(N)=O [Example 189] (H-Y[Aib]EGT[αMePhe(2-F)]TSD[4Pal]SI[αMeL]LD[Orn]K([AEEA-AEEA-γGlu-C14 diacid])AQ[Aib]EFIK([AEEA-AEEA-γGlu-C14 diacid])[αMeY]LIEGG-NH2; N-terminus assumed) | – | – | – | – | – | – | – |
| 1.55 | 82.8 ± 3.36 | 0.024 | > 9950 | > 9950 | 28.9 | 112 ± 8.5 | 0.303 | 94.5 ± 0.611 | 98.9 ± 4.64 | CC[C@H](C)[C@H](NC(=O)[C@H](CC(C)C)NC(=O)[C@](C)(Cc1ccc(O)cc1)NC(=O)[C@H](CCCCNC(=O)COCCOCCNC(=O)COCCOCCNC(=O)CC[C@H](NC(=O)CCCCCCCCCCCCC(=O)O)C(=O)O)NC(=O)[C@@H](NC(=O)[C@H](Cc1ccccc1)NC(=O)[C@H](CCC(=O)O)NC(=O)C(C)(C)NC(=O)[C@H](CCC(N)=O)NC(=O)[C@H](C)NC(=O)[C@H](CCCCNC(=O)COCCOCCNC(=O)COCCOCCNC(=O)CC[C@H](NC(=O)CCCCCCCCCCCCC(=O)O)C(=O)O)NC(=O)[C@H](CCCN)NC(=O)[C@H](CC(=O)O)NC(=O)[C@H](CC(C)C)NC(=O)[C@](C)(CC(C)C)NC(=O)[C@@H](NC(=O)[C@H](CO)NC(=O)[C@H](Cc1ccncc1)NC(=O)[C@H](CC(=O)O)NC(=O)[C@H](CO)NC(=O)[C@@H](NC(=O)[C@](C)(Cc1ccccc1F)NC(=O)[C@@H](NC(=O)CNC(=O)[C@H](CCC(=O)O)NC(=O)C(C)(C)NC(=O)[C@@H](N)Cc1ccc(O)cc1)[C@@H](C)O)[C@@H](C)O)[C@@H](C)CC)[C@@H](C)CC)C(=O)N[C@@H](CCC(=O)O)C(=O)NCC(=O)N[C@@H](CCCN)C(N)=O [Example 190] (H-Y[Aib]EGT[αMePhe(2-F)]TSD[4Pal]SI[αMeL]LD[Orn]K([AEEA-AEEA-γGlu-C14 diacid])AQ[Aib]EFIK([AEEA-AEEA-γGlu-C14 diacid])[αMeY]LIEG[Orn]-NH2; N-terminus assumed) | – | – | – | – | – | – | – |
| – | – | – | – | – | – | – | – | – | – | CC[C@H](C)[C@H](NC(=O)[C@H](CCCN)NC(=O)[C@H](CC(=O)O)NC(=O)[C@H](CC(C)C)NC(=O)[C@](C)(CC(C)C)NC(=O)[C@@H](NC(=O)[C@H](CO)NC(=O)[C@H](Cc1ccncc1)NC(=O)[C@H](CC(=O)O)NC(=O)[C@H](CO)NC(=O)[C@@H](NC(=O)[C@](C)(Cc1ccccc1F)NC(=O)[C@@H](NC(=O)CNC(=O)[C@H](CCC(=O)O)NC(=O)C(C)(C)NC(=O)[C@@H](N)Cc1ccc(O)cc1)[C@@H](C)O)[C@@H](C)O)[C@@H](C)CC)C(=O)N[C@@H](C)C(=O)N[C@@H](CCC(N)=O)C(=O)NC(C)(C)C(=O)N[C@@H](CCCCNC(=O)COCCOCCNC(=O)COCCOCCNC(=O)CCCCCCCCCCCCC(=O)O)C(=O)N[C@@H](Cc1ccccc1)C(=O)N[C@H](C(=O)N[C@@H](CCCCNC(=O)COCCOCCNC(=O)COCCOCCNC(=O)CCCCCCCCCCCCC(=O)O)C(=O)N[C@@](C)(Cc1ccc(O)cc1)C(=O)N[C@@H](CC(C)C)C(=O)N[C@H](C(=O)N[C@@H](CCC(=O)O)C(=O)NCC(=O)NCC(=O)N1CCC[C@H]1C(=O)N[C@@H](CO)C(=O)N[C@@H](CO)C(=O)NCC(=O)N[C@@H](C)C(=O)N1CCC[C@H]1C(=O)N1CCC[C@H]1C(=O)N1CCC[C@H]1C(=O)N[C@@H](CO)C(N)=O)[C@@H](C)CC)[C@@H](C)CC [Example 191] | 86.2 ± 5.5 | 90 ± 3.29 | 0.866 | > 9950 | > 9950 | 105 ± 7.98 | 13.1 |
